Measured values reported in publication PMC8462401 (Blood, 2021).

Assays:
MER = biological target: T1, MER (Homo sapiens, UniProt Q12866); experiment: radiometric kinase assay at ATP Km; format: biochemical
T1 sequence (Q12866 21-999): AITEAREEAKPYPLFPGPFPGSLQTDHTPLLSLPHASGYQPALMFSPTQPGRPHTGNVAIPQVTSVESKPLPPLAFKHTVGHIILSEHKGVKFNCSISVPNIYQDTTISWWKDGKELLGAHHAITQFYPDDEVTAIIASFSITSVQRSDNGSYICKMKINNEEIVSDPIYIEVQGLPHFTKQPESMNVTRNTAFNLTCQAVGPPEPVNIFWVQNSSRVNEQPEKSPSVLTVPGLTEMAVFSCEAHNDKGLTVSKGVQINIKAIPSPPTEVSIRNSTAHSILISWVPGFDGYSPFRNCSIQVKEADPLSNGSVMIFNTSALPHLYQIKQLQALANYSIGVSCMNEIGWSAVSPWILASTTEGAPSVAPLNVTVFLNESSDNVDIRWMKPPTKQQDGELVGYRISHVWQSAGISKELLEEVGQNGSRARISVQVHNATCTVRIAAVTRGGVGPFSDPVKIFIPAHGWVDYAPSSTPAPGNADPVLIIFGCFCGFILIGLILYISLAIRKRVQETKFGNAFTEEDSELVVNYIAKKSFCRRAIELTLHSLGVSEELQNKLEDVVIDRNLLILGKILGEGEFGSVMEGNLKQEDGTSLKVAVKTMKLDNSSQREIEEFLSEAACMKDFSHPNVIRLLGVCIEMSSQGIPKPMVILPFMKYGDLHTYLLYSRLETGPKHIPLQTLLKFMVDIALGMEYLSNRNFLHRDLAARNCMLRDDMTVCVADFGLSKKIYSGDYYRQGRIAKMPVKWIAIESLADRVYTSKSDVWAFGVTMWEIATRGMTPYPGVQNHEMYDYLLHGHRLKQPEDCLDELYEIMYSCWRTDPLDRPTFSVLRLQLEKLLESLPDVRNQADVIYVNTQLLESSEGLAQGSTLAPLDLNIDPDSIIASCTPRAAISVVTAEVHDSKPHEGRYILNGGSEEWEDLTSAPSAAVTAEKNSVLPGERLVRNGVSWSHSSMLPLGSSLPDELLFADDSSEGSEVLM

[1] = biological target: vascular endothelial growth factor receptor 1 (Homo sapiens, UniProt P17948); experiment: BaF3 panel of […] receptor tyrosine kinases, […] inhibition at […]; format: cell-based; details: BaF3, read-out: % inhibition at 100 nM
vascular endothelial growth factor receptor 1, sequence (P17948 27-1338): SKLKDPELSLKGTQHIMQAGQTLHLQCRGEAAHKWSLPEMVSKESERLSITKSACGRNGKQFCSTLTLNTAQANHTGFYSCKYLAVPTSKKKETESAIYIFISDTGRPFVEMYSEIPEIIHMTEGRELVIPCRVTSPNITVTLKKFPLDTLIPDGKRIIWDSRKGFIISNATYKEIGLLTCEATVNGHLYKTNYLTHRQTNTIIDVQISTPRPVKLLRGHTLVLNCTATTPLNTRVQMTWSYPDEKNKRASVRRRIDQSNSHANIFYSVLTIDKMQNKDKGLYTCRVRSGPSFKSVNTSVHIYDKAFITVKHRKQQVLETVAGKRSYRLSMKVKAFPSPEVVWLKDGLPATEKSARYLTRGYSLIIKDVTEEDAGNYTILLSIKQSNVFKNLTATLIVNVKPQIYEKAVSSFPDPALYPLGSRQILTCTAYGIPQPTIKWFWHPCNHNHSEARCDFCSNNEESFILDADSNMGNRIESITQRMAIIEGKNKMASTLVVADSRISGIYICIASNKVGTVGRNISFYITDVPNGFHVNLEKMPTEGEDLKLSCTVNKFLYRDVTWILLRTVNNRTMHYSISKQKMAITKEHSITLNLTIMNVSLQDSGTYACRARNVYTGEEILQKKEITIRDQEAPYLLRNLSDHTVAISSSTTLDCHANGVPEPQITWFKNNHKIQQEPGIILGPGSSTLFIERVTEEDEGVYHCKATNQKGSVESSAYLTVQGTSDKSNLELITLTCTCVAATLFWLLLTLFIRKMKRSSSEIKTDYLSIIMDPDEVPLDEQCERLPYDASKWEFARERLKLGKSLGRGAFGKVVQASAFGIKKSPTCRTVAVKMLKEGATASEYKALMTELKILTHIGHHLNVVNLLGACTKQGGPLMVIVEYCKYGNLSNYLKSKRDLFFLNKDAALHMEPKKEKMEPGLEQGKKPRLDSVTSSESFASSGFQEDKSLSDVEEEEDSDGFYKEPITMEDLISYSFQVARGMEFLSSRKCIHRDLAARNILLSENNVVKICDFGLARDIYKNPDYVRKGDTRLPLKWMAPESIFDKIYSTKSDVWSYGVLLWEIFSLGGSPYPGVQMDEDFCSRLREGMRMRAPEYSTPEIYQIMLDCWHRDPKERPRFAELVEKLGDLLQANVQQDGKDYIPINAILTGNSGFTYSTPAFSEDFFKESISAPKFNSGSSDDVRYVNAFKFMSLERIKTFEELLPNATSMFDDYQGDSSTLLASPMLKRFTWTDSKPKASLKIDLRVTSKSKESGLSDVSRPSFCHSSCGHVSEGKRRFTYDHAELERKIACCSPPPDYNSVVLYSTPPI

FGFR3 = FGFR3 (Homo sapiens, UniProt P22607); experiment: as above; format: cell-based; details: BaF3, read-out: % inhibition at 100 nM
FGFR3, sequence (P22607 23-806): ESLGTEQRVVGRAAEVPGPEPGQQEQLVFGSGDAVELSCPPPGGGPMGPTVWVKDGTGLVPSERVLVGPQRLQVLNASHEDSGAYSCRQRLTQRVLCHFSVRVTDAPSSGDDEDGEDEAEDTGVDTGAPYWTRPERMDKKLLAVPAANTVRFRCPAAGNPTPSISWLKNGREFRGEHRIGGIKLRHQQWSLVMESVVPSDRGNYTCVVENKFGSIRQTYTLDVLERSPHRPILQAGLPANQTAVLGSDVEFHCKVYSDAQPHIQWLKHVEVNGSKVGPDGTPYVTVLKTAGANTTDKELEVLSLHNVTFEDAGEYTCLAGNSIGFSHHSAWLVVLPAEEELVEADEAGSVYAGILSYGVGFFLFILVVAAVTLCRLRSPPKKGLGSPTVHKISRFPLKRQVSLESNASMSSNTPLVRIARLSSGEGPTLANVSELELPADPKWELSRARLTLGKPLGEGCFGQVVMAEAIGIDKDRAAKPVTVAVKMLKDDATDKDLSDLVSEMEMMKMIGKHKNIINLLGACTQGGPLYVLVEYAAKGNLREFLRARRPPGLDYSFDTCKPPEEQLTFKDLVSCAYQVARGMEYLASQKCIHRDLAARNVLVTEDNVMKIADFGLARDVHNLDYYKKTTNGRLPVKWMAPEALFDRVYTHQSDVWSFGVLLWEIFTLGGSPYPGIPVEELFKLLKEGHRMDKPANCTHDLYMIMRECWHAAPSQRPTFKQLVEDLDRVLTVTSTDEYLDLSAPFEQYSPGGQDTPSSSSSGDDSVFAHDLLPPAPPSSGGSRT

IC50 (MER): 44 nM
inhibition at 0.1 µM [1]: 60%
inhibition at 0.1 µM (FGFR3): 60%
SMILES: Nc1ncc(-c2cnn(C3CCNCC3)c2)cc1-c1nnc(CC2CC2)o1 [SLC-391, 3-(5-(cyclopropylmethyl)-1,3,4-oxadiazole-2-yl)-5-(1-(piperidine-4-yl)-1H-pyrazole-4-yl)pyridine-2-amine]
